Source: patent US10894788B2, “Inhibitors of cyclin-dependent kinases” (Kinnate Biopharma Inc., priority 2018, dated 2021)
Read-outs that look alike come from different tables or passages of the source.

Molecular target: CDK12 wt/CycK (Homo sapiens (Human), UniProt Q9NYV4)
Assay: Radiometric protein kinase assay (33PanQinase Activity Assay), Assay Condition A (thiol containing conditions)
Assay type: biochemical
Procedure, shortened: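 Recombinant human kinase incubated with [33P]ATP, substrate and compound (10 concentrations, 1×10^−04M to 3×10^−09M, singlicate, 1% DMSO) under thiol-containing buffer conditions, 60 min at 30 °C. 33Pi incorporation counted by scintillation; residual activity normalised to no-inhibitor and no-kinase controls, IC50 derived.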

[1] = thiol containing conditions (1.2 mM DTT), ATP 0.3 μM, read-out: CDK12 IC50 Condition A

Sequence of CDK12 wt/CycK (Q9NYV4 whole entry): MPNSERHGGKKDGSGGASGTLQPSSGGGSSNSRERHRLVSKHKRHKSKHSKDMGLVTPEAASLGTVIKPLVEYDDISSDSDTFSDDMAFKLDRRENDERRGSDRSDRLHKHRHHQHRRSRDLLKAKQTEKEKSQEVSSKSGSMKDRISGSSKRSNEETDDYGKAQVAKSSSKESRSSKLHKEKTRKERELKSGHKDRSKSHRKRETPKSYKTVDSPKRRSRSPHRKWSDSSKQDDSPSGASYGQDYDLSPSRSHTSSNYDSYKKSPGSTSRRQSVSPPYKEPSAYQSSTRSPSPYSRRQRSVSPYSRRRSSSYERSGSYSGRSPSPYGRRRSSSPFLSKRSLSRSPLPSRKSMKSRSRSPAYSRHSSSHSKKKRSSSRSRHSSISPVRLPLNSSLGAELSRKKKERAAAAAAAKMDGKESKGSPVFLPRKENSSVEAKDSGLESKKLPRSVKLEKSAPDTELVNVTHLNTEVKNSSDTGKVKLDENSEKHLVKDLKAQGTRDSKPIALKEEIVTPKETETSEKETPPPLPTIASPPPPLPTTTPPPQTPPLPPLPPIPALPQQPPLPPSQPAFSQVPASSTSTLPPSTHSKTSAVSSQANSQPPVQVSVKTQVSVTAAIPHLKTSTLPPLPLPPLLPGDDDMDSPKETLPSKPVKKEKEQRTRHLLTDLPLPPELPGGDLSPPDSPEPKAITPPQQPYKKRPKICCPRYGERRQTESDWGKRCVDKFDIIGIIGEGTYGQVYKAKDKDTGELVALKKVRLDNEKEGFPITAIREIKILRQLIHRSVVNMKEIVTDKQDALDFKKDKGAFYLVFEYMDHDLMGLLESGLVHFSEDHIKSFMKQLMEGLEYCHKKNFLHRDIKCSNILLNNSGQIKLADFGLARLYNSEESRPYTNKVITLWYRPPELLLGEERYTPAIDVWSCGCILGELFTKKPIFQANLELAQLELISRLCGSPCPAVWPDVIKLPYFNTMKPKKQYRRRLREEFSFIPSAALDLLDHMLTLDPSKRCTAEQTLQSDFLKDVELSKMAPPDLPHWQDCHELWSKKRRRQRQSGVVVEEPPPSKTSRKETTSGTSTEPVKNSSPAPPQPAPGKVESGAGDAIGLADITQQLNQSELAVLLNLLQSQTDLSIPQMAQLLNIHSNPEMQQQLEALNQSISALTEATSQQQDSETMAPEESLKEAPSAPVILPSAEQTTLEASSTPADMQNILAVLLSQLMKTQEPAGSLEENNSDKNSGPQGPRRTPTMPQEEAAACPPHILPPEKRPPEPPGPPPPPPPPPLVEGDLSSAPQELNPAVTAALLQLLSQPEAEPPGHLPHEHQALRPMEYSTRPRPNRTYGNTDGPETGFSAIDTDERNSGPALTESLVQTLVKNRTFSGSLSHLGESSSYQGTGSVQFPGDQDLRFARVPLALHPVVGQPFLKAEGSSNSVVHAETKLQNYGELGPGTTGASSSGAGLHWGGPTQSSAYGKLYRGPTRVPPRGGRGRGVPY
Sequence of CDK12 wt/CycK (O75909 whole entry partner): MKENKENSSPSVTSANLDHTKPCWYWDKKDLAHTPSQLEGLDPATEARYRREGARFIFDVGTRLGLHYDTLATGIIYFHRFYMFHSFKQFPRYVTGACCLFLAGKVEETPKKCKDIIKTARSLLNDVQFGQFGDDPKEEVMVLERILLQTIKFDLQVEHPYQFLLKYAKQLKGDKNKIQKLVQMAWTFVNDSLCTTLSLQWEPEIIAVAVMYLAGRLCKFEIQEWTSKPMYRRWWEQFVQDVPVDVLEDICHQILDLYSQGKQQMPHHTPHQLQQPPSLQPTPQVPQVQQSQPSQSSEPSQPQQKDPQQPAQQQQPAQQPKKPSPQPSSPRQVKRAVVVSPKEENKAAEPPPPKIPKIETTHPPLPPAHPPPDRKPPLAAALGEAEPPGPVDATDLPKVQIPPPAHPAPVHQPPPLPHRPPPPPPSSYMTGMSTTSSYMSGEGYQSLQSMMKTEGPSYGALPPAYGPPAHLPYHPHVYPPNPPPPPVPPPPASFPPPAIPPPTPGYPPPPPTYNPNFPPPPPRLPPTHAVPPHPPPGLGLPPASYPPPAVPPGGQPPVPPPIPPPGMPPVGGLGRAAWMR

Compound	IC50 [1] [nM]	IC50 [nM]
C=CC(=O)Nc1ccc(C(=O)N2CC[C@@H](Nc3ncc(C#N)c(OC)n3)C2)cc1OCCN(C)C [Example 165, (R)—N-(4-(3-((5-cyano-4-methoxypyrimidin-2-yl)amino)pyrrolidine-1-carbonyl)-2-(2-(dimethylamino)ethoxy)phenyl)acrylamide]	< 100	–
C=CC(=O)Nc1ccc(C(=O)N2CC[C@@H](Nc3ncc(C#N)cn3)C2)cc1OCCN(C)C [Example 166, (R)—N-(4-(3-((5-cyanopyrimidin-2-yl)amino)pyrrolidine-1-carbonyl)-2-(2-(dimethylamino)ethoxy)phenyl)acrylamide]	–	100 to 1000
COc1nc(N[C@@H]2CCN(C(=O)c3ccc(NC(=O)/C=C/CN4CC[C@@H](F)C4)cc3)C2)ncc1Cl [Example 167, (E)-N-(4-((R)-3-((5-chloro-4-methoxypyrimidin-2-yl)amino)pyrrolidine-1-carbonyl)phenyl)-4-((R)-3-fluoropyrrolidin-1-yl)but-2-enamide]	< 100	–
COc1nc(N[C@@H]2CCN(C(=O)c3ccc(NC(=O)/C=C/CN4CCOCC4)cc3)C2)ncc1Cl [Example 168, (R,E)-N-(4-(3-((5-chloro-4-methoxypyrimidin-2-yl)amino)pyrrolidine-1-carbonyl)phenyl)-4-morpholinobut-2-enamide]	100 to 1000	–
COc1nc(N[C@@H]2CCN(C(=O)c3ccc(NC(=O)/C=C/CN4CC[C@H](F)C4)cc3)C2)ncc1Cl [Example 169, (E)-N-(4-((R)-3-((5-chloro-4-methoxypyrimidin-2-yl)amino)pyrrolidine-1-carbonyl)phenyl)-4-((S)-3-fluoropyrrolidin-1-yl)but-2-enamide]	< 100	–
COc1nc(N[C@@H]2CCN(C(=O)c3ccc(NC(=O)/C=C/CN4CC[C@H](F)C4)cn3)C2)ncc1Cl [Example 171, (E)-N-(6-((R)-3-((5-chloro-4-methoxypyrimidin-2-yl)amino)pyrrolidine-1-carbonyl)pyridin-3-yl)-4-((S)-3-fluoropyrrolidin-1-yl)but-2-enamide]	100 to 1000	–
COc1nc(N[C@@H]2CCN(C(=O)c3ccc(NC(=O)/C=C/CN4CCCC(F)(F)C4)cn3)C2)ncc1Cl [Example 172, (R,E)-N-(6-(3-((5-chloro-4-methoxypyrimidin-2-yl)amino)pyrrolidine-1-carbonyl)pyridin-3-yl)-4-(3,3-difluoropiperidin-1-yl)but-2-enamide]	100 to 1000	–
COc1nc(N[C@@H]2CCN(C(=O)c3ccc(NC(=O)/C=C/CN4CCCC(F)(F)C4)cc3)C2)ncc1Cl [Example 173, (R,E)-N-(4-(3-((5-chloro-4-methoxypyrimidin-2-yl)amino)pyrrolidine-1-carbonyl)phenyl)-4-(3,3-difluoropiperidin-1-yl)but-2-enamide]	100 to 1000	–
COc1nc(N[C@@H]2CCN(C(=O)c3ccc(NC(=O)/C=C/CN4CCOCC4)cn3)C2)ncc1Cl [Example 174, (R,E)-N-(6-(3-((5-chloro-4-methoxypyrimidin-2-yl)amino)pyrrolidine-1-carbonyl)pyridin-3-yl)-4-morpholinobut-2-enamide]	100 to 1000	–
COc1nc(N[C@@H]2CCN(C(=O)c3ccc(NC(=O)/C=C/CN4CCC[C@H](F)C4)cn3)C2)ncc1Cl [Example 175, (E)-N-(6-((R)-3-((5-chloro-4-methoxypyrimidin-2-yl)amino)pyrrolidine-1-carbonyl)pyridin-3-yl)-4-((S)-3-fluoropiperidin-1-yl)but-2-enamide]	100 to 1000	–
COc1nc(N[C@@H]2CCN(C(=O)c3ccc(NC(=O)/C=C/CN4CCC[C@@H](F)C4)cn3)C2)ncc1Cl [Example 176, (E)-N-(6-((R)-3-((5-chloro-4-methoxypyrimidin-2-yl)amino)pyrrolidine-1-carbonyl)pyridin-3-yl)-4-((R)-3-fluoropiperidin-1-yl)but-2-enamide]	100 to 1000	–
COc1nc(N[C@@H]2CCN(C(=O)c3ccc(NC(=O)/C=C/CN4CCC[C@H](F)C4)cc3)C2)ncc1Cl [Example 177, (E)-N-(4-((R)-3-((5-chloro-4-methoxypyrimidin-2-yl)amino)pyrrolidine-1-carbonyl)phenyl)-4-((S)-3-fluoropiperidin-1-yl)but-2-enamide]	100 to 1000	–
COc1nc(N[C@@H]2CCN(C(=O)c3ccc(NC(=O)/C=C/CN4CCC[C@@H](F)C4)cc3)C2)ncc1Cl [Example 178, (E)-N-(4-((R)-3-((5-chloro-4-methoxypyrimidin-2-yl)amino)pyrrolidine-1-carbonyl)phenyl)-4-((R)-3-fluoropiperidin-1-yl)but-2-enamide]	100 to 1000	–
COc1nc(N[C@@H]2CCN(C(=O)c3ccc(NC(=O)/C=C/CN4CC[C@@H](F)C4)nc3)C2)ncc1Cl [Example 179, (E)-N-(5-((R)-3-((5-chloro-4-methoxypyrimidin-2-yl)amino)pyrrolidine-1-carbonyl)pyridin-2-yl)-4-((R)-3-fluoropyrrolidin-1-yl)but-2-enamide]	100 to 1000	–

Second part, led by results:

IC50 [1] [nM]	Compound	IC50 [nM]
100 to 1000	C=CC(=O)Nc1ccc(C(=O)N2CC[C@@H](Nc3ncc(Br)cn3)C2)cc1OCCN1CCC(F)(F)CC1 [Example 162, (R)—N-(4-(3-((5-bromopyrimidin-2-yl)amino)pyrrolidine-1-carbonyl)-2-(2-(4,4-difluoropiperidin-1-yl)ethoxy)phenyl)acrylamide]	–
< 100	C=CC(=O)Nc1ccc(C(=O)N2CC[C@@H](Nc3ncc(Br)cn3)C2)cc1O[C@@H]1CCN(C)C1 [Example 163, N-(4-((R)-3-((5-bromopyrimidin-2-yl)amino)pyrrolidine-1-carbonyl)-2-(((R)-1-methylpyrrolidin-3-yl)oxy)phenyl)acrylamide]	–
< 100	C=CC(=O)Nc1ccc(C(=O)N2CC[C@@H](Nc3ncc(Br)cn3)C2)cc1O[C@H]1CCN(C)C1 [Example 164, N-(4-((R)-3-((5-bromopyrimidin-2-yl)amino)pyrrolidine-1-carbonyl)-2-(((S)-1-methylpyrrolidin-3-yl)oxy)phenyl)acrylamide]	–
100 to 1000	COc1nc(N[C@@H]2CCN(C(=O)c3ccc(NC(=O)/C=C/CN4CC[C@@H](F)C4)cn3)C2)ncc1Cl [Example 170, (E)-N-(6-((R)-3-((5-chloro-4-methoxypyrimidin-2-yl)amino)pyrrolidine-1-carbonyl)pyridin-3-yl)-4-((R)-3-fluoropyrrolidin-1-yl)but-2-enamide]	–
< 100	C=CC(=O)Nc1ccc(C(=O)N2C[C@H](Nc3ncc(Cl)c(OC)n3)C[C@@H]2C)cc1 [Example 180, N-(4-((2S,4R)-4-((5-chloro-4-methoxypyrimidin-2-yl)amino)-2-methylpyrrolidine-1-carbonyl)phenyl)acrylamide]	–
< 100	C#Cc1cnc(N[C@@H]2CCN(C(=O)c3ccc(NC(=O)C=C)cc3)C2)nc1 [Example 181, (R)—N-(4-(3-((5-ethynylpyrimidin-2-yl)amino)pyrrolidine-1-carbonyl)phenyl)acrylamide]	–
< 100	C#Cc1cnc(N[C@@H]2CCN(C(=O)c3ccc(NC(=O)C=C)cc3)C2)nc1OC [Example 182, (R)—N-(4-(3-((5-ethynyl-4-methoxypyrimidin-2-yl)amino)pyrrolidine-1-carbonyl)phenyl)acrylamide]	–
< 100	C=CC(=O)Nc1ccc(C(=O)N2C[C@H](Nc3ncc(Cl)c(OC)n3)C[C@H]2C)cc1 [Example 183, N-(4-((2R,4R)-4-((5-chloro-4-methoxypyrimidin-2-yl)amino)-2-methylpyrrolidine-1-carbonyl)phenyl)acrylamide]	–
< 100	C=CC(=O)Nc1ccc(C(=O)N2CC[C@@H](Nc3ncc(C(F)(F)F)cn3)C2)cc1 [Example 184, (R)—N-(4-(3-((5-(trifluoromethyl)pyrimidin-2-yl)amino)pyrrolidine-1-carbonyl)phenyl)acrylamide]	–
